The source of these data is patent publication US20170355708A1, “POTASSIUM CHANNEL MODULATORS” (Cadent Therapeutics, Inc., priority 2016, published 2017).

Molecules are shown by their SMILES.

The experiment concerns the target T1, hSK2 channels (Homo sapiens, UniProt P0DP23+Q9H2S1).
T1 construct: expressed in transfected cells; host or cells: HEK293
In words: Whole-cell patch-clamp recording of SK2 channel current (SC100). Format: cell-based. The following applies: Stimulating Concentration required for increasing the baseline current by 100%; HEK293 cells expressing hSK2; Table 3. The procedure: The biological activity of certain compounds were determined as follows. The ionic current through small-conductance Ca^2+-activated K^+ channels (SK channels, subtype 2) is recorded using the whole-cell configuration of the patch-clamp technique in a classic patch-clamp set-up using HEK293 tissue culture cells expressing hSK2 channels as described in Kasumu et. al., Chemistry & Biology 19, 1340-1353, Oct. 26, 2012.
The SC100 value determined is defined as the Stimulating Concentration required for increasing the baseline current by 100%.

Consider `Cc1cc(C)n(-c2cc(N3CCOC(C(N)=O)C3)nc(Nc3ccc(F)c(F)c3)n2)n1` (racemic) [Compound 129, 4-(2-((3,4-difluorophenyl)amino)-6-(3,5-dimethyl-1H-pyrazol-1-yl)pyrimidin-4-yl)morpholine-2-carboxamide], for which the “SC100 uM” value is on record as “+++ (+++ means <200 nM)”.

Take `Cc1cc(C)n(-c2nc(Nc3ccc(F)c(F)c3)cc(N3CCO[C@@H](CO)C3)n2)n1` (single isomer, unassigned) [Compound 121, (+)-(4-(6-((3,4-difluorophenyl)amino)-2-(3,5-dimethyl-1H-pyrazol-1-yl)pyrimidin-4-yl)morpholin-2-yl) methanol]: the “SC100 uM” value is recorded as “+++ (+++ means <200 nM)”.

As for `Cc1cc(C)n(-c2nc(Nc3ccc(F)c(F)c3)cc(N3CCO[C@H](CO)C3)n2)n1` (single isomer, unassigned) [Compound 122, (−)-(4-(6-((3,4-difluorophenyl)amino)-2-(3,5-dimethyl-1H-pyrazol-1-yl)pyrimidin-4-yl)morpholin-2-yl)methanol], the “SC100 uM” value is given as “++ (++ means 200 nM-1000 nM)”. The result for `Cc1cc(C)n(-c2nc(Nc3ccc(Cl)cc3)cc(N[C@H](C)C(N)=O)n2)n1` (single isomer, unassigned) [Compound 123, (+)-2-((6-((4-chlorophenyl)amino)-2-(3,5-dimethyl-1H-pyrazol-1-yl)pyrimidin-4-yl)amino)propanamide] reads “++ (++ means 200 nM-1000 nM)”; that for `Cc1cc(C)n(-c2nc(Nc3ccc(Cl)cc3)cc(N[C@@H](C)C(N)=O)n2)n1` (single isomer, unassigned) [Compound 124, (−)-2-((6-((4-chlorophenyl)amino)-2-(3,5-dimethyl-1H-pyrazol-1-yl)pyrimidin-4-yl)amino)propanamide], “++ (++ means 200 nM-1000 nM)”; that for `Cc1cc(C)n(-c2nc(Nc3ccc(F)cc3F)cc(N3CCN[C@@H](C(N)=O)C3)n2)n1` (single isomer, unassigned) [Compound 125, (−)-4-(6-((2,4-difluorophenyl)amino)-2-(3,5-dimethyl-1H-pyrazol-1-yl)pyrimidin-4-yl)piperazine-2-carboxamide], “++ (++ means 200 nM-1000 nM)”.

For `Cc1cc(C)n(-c2nc(Nc3ccc(F)cc3F)cc(N3CCN[C@H](C(N)=O)C3)n2)n1` (single isomer, unassigned) [Compound 128, (+)-4-(6-((2,4-difluorophenyl)amino)-2-(3,5-dimethyl-1H-pyrazol-1-yl)pyrimidin-4-yl)piperazine-2-carboxamide], the “SC100 uM” value is “+ (+ means >1 uM)”. Then `Cc1cc(C)n(-c2cc(N3CCO[C@H](C(N)=O)C3)nc(Nc3ccc(F)c(F)c3)n2)n1` (single isomer, unassigned) [Compound 131, (+)-4-(2-((3,4-difluorophenyl)amino)-6-(3,5-dimethyl-1H-pyrazol-1-yl)pyrimidin-4-yl)morpholine-2-carboxamide], with “+++ (+++ means <200 nM)”.

Turning to `Cc1cc(C)n(-c2cc(N3CCO[C@@H](C(N)=O)C3)nc(Nc3ccc(F)c(F)c3)n2)n1` (single isomer, unassigned) [Compound 132, (−)-4-(2-((3,4-difluorophenyl)amino)-6-(3,5-dimethyl-1H-pyrazol-1-yl)pyrimidin-4-yl)morpholine-2-carboxamide], the “SC100 uM” value is “+++ (+++ means <200 nM)”. Consider `Cc1cc(C)n(-c2cc(N3C[C@@H]4C[C@H]3CN4)nc(Nc3ccc(F)cc3F)n2)n1` (stereo in doubt) [Compound 106, 4-((1S,4S)-2,5-diazabicyclo[2.2.1]heptan-2-yl)-N-(2,4-difluorophenyl)-6-(3,5-dimethyl-1H-pyrazol-1-yl)pyrimidin-2-amine], for which the “SC100 uM” value is “++ (++ means 200 nM-1000 nM)”. Then `Cc1cc(C)n(-c2cc(N3C[C@@H]4C[C@H]3CN4)nc(Nc3ccc(F)c(F)c3)n2)n1` (stereo in doubt) [Compound 109, 4-((1S,4S)-2,5-diazabicyclo[2.2.1]heptan-2-yl)-N-(3,4-difluorophenyl)-6-(3,5-dimethyl-1H-pyrazol-1-yl)pyrimidin-2-amine], with “++ (++ means 200 nM-1000 nM)”. For the molecule `CC(=O)N1CCN(c2cc(Nc3ccc(F)c(F)c3)nc(-n3nc(C)cc3C)n2)CC1` [Compound 100, 1-(4-(6-((3,4-difluorophenyl)amino)-2-(3,5-dimethyl-1H-pyrazol-1-yl)pyrimidin-4-yl)piperazin-1-yl)ethan-1-one], the “SC100 uM” value is “+++ (+++ means <200 nM)”. The result for `CC(=O)N1CCN(c2cc(-n3nc(C)cc3C)nc(Nc3ccc(F)c(F)c3)n2)CC1` [Compound 101, 1-(4-(2-((3,4-difluorophenyl)amino)-6-(3,5-dimethyl-1H-pyrazol-1-yl)pyrimidin-4-yl)piperazin-1-yl)ethan-1-one] reads “+++ (+++ means <200 nM)”.

Take `CC(=O)N1CCN(c2cc(Nc3ccc(F)cc3)nc(-n3nc(C)cc3C)n2)CC1` [Compound 102, 1-(4-(2-(3,5-dimethyl-1H-pyrazol-1-yl)-6-((4-fluorophenyl)amino)pyrimidin-4-yl)piperazin-1-yl)ethan-1-one]: the “SC100 uM” value is listed as “++ (++ means 200 nM-1000 nM)”. Turning to `CC(=O)N1CCN(c2cc(-n3nc(C)cc3C)nc(Nc3ccc(F)cc3)n2)CC1` [Compound 103, 1-(4-(6-(3,5-dimethyl-1H-pyrazol-1-yl)-2-((4-fluorophenyl)amino)pyrimidin-4-yl)piperazin-1-yl)ethan-1-one], the “SC100 uM” value is “+++ (+++ means <200 nM)”.

On to `CC(=O)N1CCN(c2cc(-n3nc(C)cc3C)nc(Nc3ccc(F)cc3F)n2)CC1` [Compound 104, 1-(4-(2-((2,4-difluorophenyl)amino)-6-(3,5-dimethyl-1H-pyrazol-1-yl)pyrimidin-4-yl)piperazin-1-yl)ethan-1-one], for which the “SC100 uM” value is on record as “++ (++ means 200 nM-1000 nM)”. For the molecule `CC(=O)N1CCN(c2cc(Nc3ccc(F)cc3F)nc(-n3nc(C)cc3C)n2)CC1` [Compound 105, 1-(4-(6-((2,4-difluorophenyl)amino)-2-(3,5-dimethyl-1H-pyrazol-1-yl)pyrimidin-4-yl)piperazin-1-yl)ethan-1-one], the “SC100 uM” value is listed as “++ (++ means 200 nM-1000 nM)”. Then `Cc1cc(C)n(-c2cc(N3CC4(COC4)C3)nc(Nc3ccc(F)cc3F)n2)n1` [Compound 107, N-(2,4-difluorophenyl)-4-(3,5-dimethyl-1H-pyrazol-1-yl)-6-(2-oxa-6-azaspiro[3.3]heptan-6-yl)pyrimidin-2-amine], with “+ (+ means >1 uM)”; and `Cc1cc(C)n(-c2cc(N3CC4(COC4)C3)nc(Nc3ccc(F)c(F)c3)n2)n1` [Compound 108, N-(3,4-difluorophenyl)-4-(3,5-dimethyl-1H-pyrazol-1-yl)-6-(2-oxa-6-azaspiro[3.3]heptan-6-yl)pyrimidin-2-amine], with “++ (++ means 200 nM-1000 nM)”; and `Cc1cc(C)n(-c2cc(N3CCNC(C(N)=O)C3)nc(Nc3ccc(F)cc3F)n2)n1` (stereo not shown) [Compound 110, 4-(2-((2,4-difluorophenyl)amino)-6-(3,5-dimethyl-1H-pyrazol-1-yl)pyrimidin-4-yl)piperazine-2-carboxamide], with “++ (++ means 200 nM-1000 nM)”.

For `Cc1cc(C)n(-c2nc(Nc3ccc(F)c(F)c3)cc(N3CC4(COC4)C3)n2)n1` [Compound 111, N-(3,4-difluorophenyl)-2-(3,5-dimethyl-1H-pyrazol-1-yl)-6-(2-oxa-6-azaspiro[3.3]heptan-6-yl)pyrimidin-4-amine], the “SC100 uM” value is recorded as “+++ (+++ means <200 nM)”.

As for `Cc1cc(C)n(-c2cc(NC(C)C(N)=O)nc(Nc3ccc(F)c(F)c3)n2)n1` (stereo not shown) [Compound 113, 2-((2-((3,4-difluorophenyl)amino)-6-(3,5-dimethyl-1H-pyrazol-1-yl)pyrimidin-4-yl)amino)propanamide], the “SC100 uM” value is given as “++ (++ means 200 nM-1000 nM)”. Take `Cc1cc(C)n(-c2nc(Nc3ccc(Cl)cc3)cc(NC(C)C(N)=O)n2)n1` (stereo not shown) [Compound 114, 2-((6-((4-chlorophenyl)amino)-2-(3,5-dimethyl-1H-pyrazol-1-yl)pyrimidin-4-yl)amino)propanamide]: the “SC100 uM” value is “++ (++ means 200 nM-1000 nM)”. The result for `Cc1cc(C)n(-c2nc(Nc3ccc(F)cc3F)cc(N3CCNC(C(N)=O)C3)n2)n1` (stereo not shown) [Compound 115, 4-(6-((2,4-difluorophenyl)amino)-2-(3,5-dimethyl-1H-pyrazol-1-yl)pyrimidin-4-yl)piperazine-2-carboxamide] reads “++ (++ means 200 nM-1000 nM)”; that for `Cc1cc(C)n(-c2cc(N3CCNC(C(N)=O)C3)nc(Nc3ccc(F)c(F)c3)n2)n1` (stereo not shown) [Compound 116, 4-(2-((3,4-difluorophenyl)amino)-6-(3,5-dimethyl-1H-pyrazol-1-yl)pyrimidin-4-yl)piperazine-2-carboxamide], “+++ (+++ means <200 nM)”. On to `Cc1cc(C)n(-c2nc(Nc3ccc(F)c(F)c3)cc(N3CCOC(CO)C3)n2)n1` (stereo not shown) [Compound 117, (4-(6-((3,4-difluorophenyl)amino)-2-(3,5-dimethyl-1H-pyrazol-1-yl)pyrimidin-4-yl)morpholin-2-yl)methanol], for which the “SC100 uM” value is recorded as “+++ (+++ means <200 nM)”. For `Cc1cc(C)n(-c2nc(Nc3ccc(Cl)cc3)nc3c2ncn3C(C)C)n1` [Compound 118, N-(4-chlorophenyl)-6-(3,5-dimethyl-1H-pyrazol-1-yl)-9-isopropyl-9H-purin-2-amine], the “SC100 uM” value is listed as “+++ (+++ means <200 nM)”. Then `CCn1cnc2c(-n3nc(C)cc3C)nc(Nc3ccc(F)c(F)c3)cc21` [Compound 120, N-(3,4-difluorophenyl)-4-(3,5-dimethyl-1H-pyrazol-1-yl)-1-ethyl-1H-imidazo[4,5-c]pyridin-6-amine], with “+ (+ means >1 uM)”.
